According to patent US7476650B2, “Enzyme inhibition” (Yale University, priority 1999, dated 2009):
pIC50: −log10 of the molar value. Where two headings read alike, the source gives them in different places. Blank lines part the entries; values can stand above or below the molecule they belong to. Where a SMILES comes first, the peptide text is derived from it. The star is where a group is joined. Cbz = O=C(OCc1ccccc1)*

Key:
[1] = target: T1, chymotrypsin-like activity of purified bovine erythrocyte 20S proteasome (Bos taurus, UniProt Q32KL2); assay: Enzyme kinetic assay, chymotrypsin-like activity (Suc-LLVY-AMC); type: biochemical; conditions: for kobs/[I] for chymotryptic-like activity using Suc-LLVY-AMC: Examples 9 and 10, in M-1s-1; for kassoc = kobs/[I] (chymotrypsin-like activity inhibition): Table 5; for kobs/[I] Chymotrypsin-like: Table 3; for kassoc = kobs/[I] Chymotrypsin-like activity: Table 2, inhibitor concentration range in the line below
T1 construct: from tissue; host or cells: bovine erythrocytes (red blood cells)
Excerpt: (§1) We investigated the potency of inhibitors of various length. Mono-, di-,tri- and tetraleucine α′,β′-epoxides were ranked by determination of the kobs/[I] values for inhibition of the chymotrypsin-like, trypsin-like, and PGPH activities of purified bovine erythrocyte 20S proteasome.
(§2) Purified bovine erythrocyte proteasome was enzymatically assayed using a variety of different substrates and inhibitors. In order to evaluate the rates of proteolytic inactivation by inhibitors, kassociation (kobs/[I]) values were determined using fluorogenic peptide substrates over a range of inhibitor concentrations.

[2] = target: T2, trypsin-like activity of purified bovine erythrocyte 20S proteasome (Bos taurus, UniProt Q2TBP0); assay: Enzyme kinetic assay, trypsin-like activity (Boc-LRR-AMC); type: biochemical; conditions: for kobs/[I] for tryptic-like activity using Boc-LRR-AMC: Examples 9 and 10; for inhibition of the trypsin-like activity of the proteasome: in words; for kassoc = kobs/[I] Trypsin-like activity: Table 2, inhibitor concentration range in the line below
T2 construct: from tissue; host or cells: bovine erythrocytes (red blood cells)
Excerpt: as §1, §2

[3] = target: T3, PGPH activity of purified bovine erythrocyte 20S proteasome (Bos taurus, UniProt Q3MHN0); assay: Enzyme kinetic assay, PGPH activity (Z-LLE-AMC); type: biochemical; conditions: for kobs/[I] for PGPH activity using Z-LLE-AMC: Examples 9 and 10; for kobs/[I] PGPH: Table 3; for selectivity for the PGPH activity: in words, data not shown for Glu compounds; for kassoc = kobs/[I] PGPH activity: Table 2, inhibitor concentration range in the line below
T3 construct: from tissue; host or cells: bovine erythrocytes (red blood cells)
Procedure: as §1, with “proteasome. Enzyme kinetic assays were performed as described in Example 2.” for “proteasome.”
as §2

[4] = system: bovine aortic endothelial (BAE) cells; assay: BAE cell proliferation ([methyl-3H]-thymidine incorporation); type: cell-based
Procedure: BAE cells were cultured at 7% CO2 and were grown in DMEM supplemented with 10% FBS, 1% penicillin/streptomycin (GIBCO), and 1 mM sodium pyruvate.
Approximately 1000 BAE cells were plated into each well of a 96-well culture plate. After an overnight incubation, different concentrations of proteasome inhibitors were added and incubation was continued for another five days. […] Subsequently, 74 kBq of [methyl-^3H]-thymidine was added to each well of the plate and the plate was incubated for another additional 4 hours. Cells were harvested using a Skatron Cell Harvester and incorporated radioactivity was quantified using liquid scintillation. Proliferation of BAE cells was assayed in triplicate in the presence of different concentrations of peptide epoxides.
Perturbation of the proteasome activity can result in inhibition of cell growth, and can further lead to cell death at elevated concentration of the proteasome inhibitors. This provides an excellent cell-based assay to assess the importance of each catalytic activity of the 20S proteasome in degradation of proteins involved in cell growth. We measured inhibition of proliferation of bovine aortic endothelial (BAE) cells with our α′,β′-epoxyketone-based inhibitors with varying degree of specificity for the PGPH activity.

[5] = target: cathepsin B (Homo sapiens, UniProt P07858); assay: Cathepsin B inhibition assay
[6] = system: ubiquitinated proteins in Hela cells; assay: α-ubiquitin immunoblot of treated Hela cells; type: cell-based; conditions: epoxomicin 10 μM, 2 hours
Procedure: (§3) The control experiment (Crtl) was carried out with vehicle only.

[7] = target: T4, purified murine spleen proteasome (Mus musculus, UniProt O35955+P28063+P70195); assay: [3H]-epoxomicin binding to purified proteasome; conditions: compared with epoxomicin-biotin
T4 construct: from tissue; host or cells: murine spleen
T4 sequence (P28063 73-276): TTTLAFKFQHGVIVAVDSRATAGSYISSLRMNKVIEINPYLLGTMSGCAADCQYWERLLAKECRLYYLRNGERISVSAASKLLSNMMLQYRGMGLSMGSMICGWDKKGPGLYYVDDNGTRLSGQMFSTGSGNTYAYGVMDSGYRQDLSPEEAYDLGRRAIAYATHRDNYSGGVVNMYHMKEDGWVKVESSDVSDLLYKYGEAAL
T4 sequence (O35955 40-273): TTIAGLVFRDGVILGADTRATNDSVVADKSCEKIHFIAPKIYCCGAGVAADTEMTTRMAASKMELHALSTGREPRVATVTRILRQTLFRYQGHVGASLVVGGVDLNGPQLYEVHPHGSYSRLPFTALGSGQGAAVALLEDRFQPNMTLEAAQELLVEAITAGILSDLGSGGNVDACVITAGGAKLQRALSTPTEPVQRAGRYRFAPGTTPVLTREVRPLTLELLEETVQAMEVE
T4 sequence (P70195 44-277): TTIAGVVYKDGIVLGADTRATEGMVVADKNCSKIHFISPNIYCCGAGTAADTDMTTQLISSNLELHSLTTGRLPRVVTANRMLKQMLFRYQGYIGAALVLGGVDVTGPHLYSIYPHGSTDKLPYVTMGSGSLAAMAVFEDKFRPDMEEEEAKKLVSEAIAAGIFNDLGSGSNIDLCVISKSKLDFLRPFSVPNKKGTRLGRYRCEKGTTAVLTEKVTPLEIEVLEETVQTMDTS

[8] = system: mice, DNFB applied to the ear; assay: DNFB ear inflammation (irritant sensitivity response); type: in vivo; conditions: single dose one hour before DNFB, 24 hours
Procedure: Ear thickness was measured at 0 and 24 hours after DNFB application.

[9] = system: p53 protein levels in HUVECs; assay: α-p53 immunoblot of treated HUVECs; type: cell-based; conditions: 5 μM
Procedure: The tumor suppressor p53 is a known target of the proteasome.
as §3

[10] = Table 6, PGPH-directed inhibitors

kobs/[I] for chymotryptic-like activity using Suc-LLVY-AMC [1]: 8,500
kassoc = kobs/[I] (chymotrypsin-like activity inhibition) [1]: 8500 M⁻¹ s⁻¹
kobs/[I] for tryptic-like activity using Boc-LRR-AMC [2]: not measurable
kobs/[I] for PGPH activity using Z-LLE-AMC [3]: not measurable
SMILES: CC(=O)N[C@@H](CC(C)C)C(=O)N[C@@H](Cc1ccccc1)C(=O)N[C@@H](CC(C)C)C(=O)N[C@@H](CC(C)C)C(=O)[C@@]1(C)CO1 [Ac-LFLL-epoxide]
pIC50 ([4]; Table 5, five days incubation): 7.80

kobs/[I] for chymotryptic-like activity using Suc-LLVY-AMC [1]: 16,000
kassoc = kobs/[I] (chymotrypsin-like activity inhibition) [1]: 16,000 M^−1 s^−1
kobs/[I] for tryptic-like activity using Boc-LRR-AMC [2]: 4.1 M⁻¹ s⁻¹
kobs/[I] for PGPH activity using Z-LLE-AMC [3]: 20
SMILES: CC(=O)N[C@@H](CC(C)C)C(=O)N[C@@H](CC(C)C)C(=O)N[C@@H](C)C(=O)N[C@@H](CC(C)C)C(=O)[C@@]1(C)CO1 [Ac-LLAL-epoxide]
pIC50 ([4]; Table 5, five days incubation): 7.47

kobs/[I] for chymotryptic-like activity using Suc-LLVY-AMC [1]: 54,000
kassoc = kobs/[I] (chymotrypsin-like activity inhibition) [1]: 54,000 M^−1 s^−1
kobs/[I] for tryptic-like activity using Boc-LRR-AMC [2]: not measurable
kobs/[I] for PGPH activity using Z-LLE-AMC [3]: not measurable
SMILES: CC(=O)N[C@@H](CC(C)C)C(=O)N[C@@H](CC(C)C)C(=O)N[C@@H](Cc1ccccc1)C(=O)N[C@@H](CC(C)C)C(=O)[C@@]1(C)CO1 [Ac-LLFL-epoxide]
pIC50 ([4]; Table 5, five days incubation): 8.15

kobs/[I] Chymotrypsin-like [1]: 1.9 ± 0.6 M⁻¹ s⁻¹
inhibition of the trypsin-like activity of the proteasome [2]: no inhibition
selectivity: fold higher kobs/[I] for inhibition of the PGPH activity than the chymotrypsin-like activity ([3]; PGPH vs chymotrypsin-like): 60 fold
kobs/[I] PGPH [3]: 115 ± 15 M⁻¹ s⁻¹
SMILES: CCCC[C@H](NC(C)=O)C(=O)N1CCC[C@H]1C(=O)N[C@@H](Cc1ccccc1)C(=O)N[C@@H](CC(C)C)C(=O)[C@@]1(C)CO1 [Ac-NorLPFL-Ex]
pIC50 [4, 10]: 4.28

kobs/[I] Chymotrypsin-like [1]: 190 ± 60 M⁻¹ s⁻¹
inhibition of the trypsin-like activity of the proteasome [2]: no inhibition
kobs/[I] PGPH [3]: 194 ± 4 M⁻¹ s⁻¹
selectivity for the PGPH activity [3]: no selectivity
SMILES: CC(C)CCCCC(=O)N1CCC[C@H]1C(=O)N[C@@H](Cc1ccccc1)C(=O)N[C@@H](CC(C)C)C(=O)[C@@]1(C)CO1 [Isooctanioc-PFL-Ex]
pIC50 [4, 10]: 6.22

kobs/[I] Chymotrypsin-like [1]: 220 ± 70 M⁻¹ s⁻¹
inhibition of the trypsin-like activity of the proteasome [2]: no inhibition
kobs/[I] PGPH [3]: 150 ± 40 M⁻¹ s⁻¹
selectivity for the PGPH activity [3]: no selectivity
SMILES: CC(C)C[C@H](NC(=O)[C@H](Cc1ccccc1)NC(=O)[C@@H]1CCCN1C(=O)c1ccc(N(C)C)cc1)C(=O)[C@@]1(C)CO1 [N-dimethylaminobenzoyl-PFL-EX]
pIC50 [4, 10]: 6.40

kassoc = kobs/[I] Chymotrypsin-like activity [1]: 6790 ± 919 M⁻¹ s⁻¹
kassoc = kobs/[I] Trypsin-like activity [2]: 5.3 ± 2.8 M⁻¹ s⁻¹
kassoc = kobs/[I] PGPH activity [3]: 6.4 ± 2.3 M⁻¹ s⁻¹
inhibition of cathepsin B enzymatic activity ([5]; at 10 μM): significantly inhibited
SMILES: CC(C)C[C@@H](/C=C/S(C)(=O)=O)NC(=O)[C@H](CC(C)C)NC(=O)[C@H](CC(C)C)NC(=O)Cc1cc(I)c(O)c([N+](=O)[O-])c1 [NLVS, reference compound]

kobs/[I] Chymotrypsin-like [1]: 520 ± 40 M⁻¹ s⁻¹
kobs/[I] Trypsin-like ([2]; Table 3): 3.7 ± 1.1 M⁻¹ s⁻¹
kobs/[I] PGPH [3]: 23 ± 3 M⁻¹ s⁻¹
SMILES: CC(C)C[C@H](NC(=O)[C@H](Cc1ccccc1)NC(=O)[C@@H]1CCCN1C(=O)c1cnccn1)C(=O)C1(C)CO1 (stereo partly shown) [Pyrazinecarbonyl-PFL-Ex]
pIC50 [4, 10]: 6.40

SMILES: CC(C)C[C@@H](C=O)NC(=O)[C@H](CC(C)C)NC(=O)[C@H](CC(C)C)NC(=O)OCc1ccccc1 [Z-LLL-H] (Cbz-Leu-Leu-Leu-aldehyde)
accumulation of ubiquitinated proteins (anti-ubiquitin antibody) [6]: upper molecular weight bands were also observed

SMILES: [3H]C([3H])([3H])C(=O)N(C)[C@H](C(=O)N[C@H](C(=O)N[C@H](C(=O)N[C@@H](CC(C)C)C(=O)[C@@]1(C)CO1)[C@@H](C)O)[C@@H](C)CC)[C@@H](C)CC [[^3H] epoxomicin]
protein binding pattern [7]: same protein binding pattern observed with epoxomicin-biotin

SMILES: CC(C)[C@H](O)[C@@]12NC(=O)[C@H](C)[C@@H]1OC2=O [clasto-lactacystin β lactone, clasto-lactacystin β-lactone, reference compound]
kassoc = kobs/[I] Chymotrypsin-like activity [1]: 8530 ± 280 M⁻¹ s⁻¹
kassoc = kobs/[I] Trypsin-like activity [2]: 253 ± 41 M⁻¹ s⁻¹
kassoc = kobs/[I] PGPH activity [3]: 37 ± 4.7 M⁻¹ s⁻¹
inhibition of cathepsin B enzymatic activity ([5]; at 50 μM): significantly inhibited

SMILES: CC(=O)N[C@@H](CCc1ccccc1)C(=O)N[C@@H](CC(C)C)C(=O)N[C@@H](Cc1ccccc1)C(=O)N[C@@H](CC(C)C)C(=O)[C@@]1(C)CO1 [compound 16]
kinact/KI ([1]; pH 8, read-out: kobs/[I] for chymotryptic-like activity using Suc-LLVY-AMC): 183000 M⁻¹ s⁻¹
kinact/KI ([1]; pH 8, Table 4, inhibitor concentration range in parentheses, read-out: kassoc = kobs/[I] Chymotrypsin-like activity): 166000 M⁻¹ s⁻¹
kinact/KI ([2]; pH 8, Table 4, inhibitor concentration range in parentheses, read-out: kassoc = kobs/[I] Trypsin-like activity): 7.1 M⁻¹ s⁻¹
kinact/KI ([3]; pH 8, Table 4, inhibitor concentration range in parentheses, read-out: kassoc = kobs/[I] PGPH activity): 21 M⁻¹ s⁻¹
pIC50 ([4]; Bos taurus, 120 h, Table 5, five days incubation): 7.70
inhibition of ear inflammation / ear swelling over vehicle-treated controls ([8]; high dose 2.0 mg/kg (3.6 μmol/kg)): 12 fold
inhibition of ear inflammation / ear swelling over vehicle-treated controls ([8]; low dose 0.32 mg/kg (0.58 μmol/kg)): reducing ear swelling by the same amount as epoxomicin

SMILES: CC(=O)N[C@@H](CSC(=O)[C@]1([C@@H](O)C(C)C)NC(=O)[C@H](C)[C@@H]1O)C(=O)O [lactacystin]
increase of p53 levels over untreated cells [9]: 10 fold
